{
  "source": "patent US10662229B2",
  "about": "“Spider venom peptides and methods of use for modulating sodium channels” (priority 2016, dated 2020)",
  "key": {"[1]": {"biological_target": "T1, hNav1.9 (Homo sapiens, UniProt Q9UI33)", "T1 construct": "expressed in transfected cells; host or cells: HEK293", "T1 sequence (Q9UI33 whole entry)": "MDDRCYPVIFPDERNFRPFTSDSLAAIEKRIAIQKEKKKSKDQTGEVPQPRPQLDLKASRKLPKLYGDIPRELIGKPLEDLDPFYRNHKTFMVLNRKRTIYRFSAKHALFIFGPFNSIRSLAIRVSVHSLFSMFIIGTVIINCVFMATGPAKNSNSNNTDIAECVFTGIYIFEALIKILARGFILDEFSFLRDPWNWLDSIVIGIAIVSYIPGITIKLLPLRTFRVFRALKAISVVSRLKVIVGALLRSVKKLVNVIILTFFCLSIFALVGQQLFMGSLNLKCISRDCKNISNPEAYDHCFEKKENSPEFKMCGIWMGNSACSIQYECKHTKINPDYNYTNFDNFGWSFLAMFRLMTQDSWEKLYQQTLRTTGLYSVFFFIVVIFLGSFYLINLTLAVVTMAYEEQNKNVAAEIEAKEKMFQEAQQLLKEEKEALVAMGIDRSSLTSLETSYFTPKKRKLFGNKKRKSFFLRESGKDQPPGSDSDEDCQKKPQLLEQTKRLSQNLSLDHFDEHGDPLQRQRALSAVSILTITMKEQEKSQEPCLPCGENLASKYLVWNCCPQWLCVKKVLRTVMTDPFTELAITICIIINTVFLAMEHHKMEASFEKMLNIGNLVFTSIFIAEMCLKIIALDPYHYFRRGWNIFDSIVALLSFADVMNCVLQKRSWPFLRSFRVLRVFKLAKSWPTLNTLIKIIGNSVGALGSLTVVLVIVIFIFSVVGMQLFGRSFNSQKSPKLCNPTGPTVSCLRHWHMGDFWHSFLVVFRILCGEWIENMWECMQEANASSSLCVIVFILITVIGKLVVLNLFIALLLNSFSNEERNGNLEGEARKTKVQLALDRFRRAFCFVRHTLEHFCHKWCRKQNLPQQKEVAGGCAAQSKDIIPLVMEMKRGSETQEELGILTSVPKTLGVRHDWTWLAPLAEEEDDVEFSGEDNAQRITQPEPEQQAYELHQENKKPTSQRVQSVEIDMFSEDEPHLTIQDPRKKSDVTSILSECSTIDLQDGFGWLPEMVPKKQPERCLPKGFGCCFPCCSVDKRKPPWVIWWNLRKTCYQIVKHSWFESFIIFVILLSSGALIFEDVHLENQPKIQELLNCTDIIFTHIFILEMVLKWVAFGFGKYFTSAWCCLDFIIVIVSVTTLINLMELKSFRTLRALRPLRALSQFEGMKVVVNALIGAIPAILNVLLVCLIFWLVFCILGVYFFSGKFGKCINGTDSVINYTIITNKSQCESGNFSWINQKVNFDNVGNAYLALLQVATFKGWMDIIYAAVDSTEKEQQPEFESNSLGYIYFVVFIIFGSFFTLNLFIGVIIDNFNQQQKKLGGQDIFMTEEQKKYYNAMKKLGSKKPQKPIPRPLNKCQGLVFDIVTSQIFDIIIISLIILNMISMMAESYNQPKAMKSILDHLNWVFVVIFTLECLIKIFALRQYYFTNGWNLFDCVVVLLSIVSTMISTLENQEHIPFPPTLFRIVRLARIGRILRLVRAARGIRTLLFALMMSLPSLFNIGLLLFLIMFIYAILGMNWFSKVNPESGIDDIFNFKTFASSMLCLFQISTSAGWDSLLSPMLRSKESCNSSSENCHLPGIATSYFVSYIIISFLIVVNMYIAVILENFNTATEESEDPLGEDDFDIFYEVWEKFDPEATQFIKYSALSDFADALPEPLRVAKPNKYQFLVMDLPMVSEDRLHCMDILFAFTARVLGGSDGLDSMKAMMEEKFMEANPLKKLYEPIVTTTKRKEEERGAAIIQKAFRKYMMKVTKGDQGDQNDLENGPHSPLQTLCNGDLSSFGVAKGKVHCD", "experiment": "Automated patch clamp (PatchXpress), hNav1.9", "assay_type": "cell-based", "protocol": "Cells were triturated until a single cell suspension was achieved. […] Cell aliquots of 5 mL (1×10^6 cells) were placed in a 15 mL centrifuge tube and spun at 100×g for 2 minutes."}, "[2]": {"biological_target": "T2, hNav1.4 (Homo sapiens, UniProt P35499)", "T2 construct": "host or cells: HEK293", "T2 sequence (P35499 whole entry)": "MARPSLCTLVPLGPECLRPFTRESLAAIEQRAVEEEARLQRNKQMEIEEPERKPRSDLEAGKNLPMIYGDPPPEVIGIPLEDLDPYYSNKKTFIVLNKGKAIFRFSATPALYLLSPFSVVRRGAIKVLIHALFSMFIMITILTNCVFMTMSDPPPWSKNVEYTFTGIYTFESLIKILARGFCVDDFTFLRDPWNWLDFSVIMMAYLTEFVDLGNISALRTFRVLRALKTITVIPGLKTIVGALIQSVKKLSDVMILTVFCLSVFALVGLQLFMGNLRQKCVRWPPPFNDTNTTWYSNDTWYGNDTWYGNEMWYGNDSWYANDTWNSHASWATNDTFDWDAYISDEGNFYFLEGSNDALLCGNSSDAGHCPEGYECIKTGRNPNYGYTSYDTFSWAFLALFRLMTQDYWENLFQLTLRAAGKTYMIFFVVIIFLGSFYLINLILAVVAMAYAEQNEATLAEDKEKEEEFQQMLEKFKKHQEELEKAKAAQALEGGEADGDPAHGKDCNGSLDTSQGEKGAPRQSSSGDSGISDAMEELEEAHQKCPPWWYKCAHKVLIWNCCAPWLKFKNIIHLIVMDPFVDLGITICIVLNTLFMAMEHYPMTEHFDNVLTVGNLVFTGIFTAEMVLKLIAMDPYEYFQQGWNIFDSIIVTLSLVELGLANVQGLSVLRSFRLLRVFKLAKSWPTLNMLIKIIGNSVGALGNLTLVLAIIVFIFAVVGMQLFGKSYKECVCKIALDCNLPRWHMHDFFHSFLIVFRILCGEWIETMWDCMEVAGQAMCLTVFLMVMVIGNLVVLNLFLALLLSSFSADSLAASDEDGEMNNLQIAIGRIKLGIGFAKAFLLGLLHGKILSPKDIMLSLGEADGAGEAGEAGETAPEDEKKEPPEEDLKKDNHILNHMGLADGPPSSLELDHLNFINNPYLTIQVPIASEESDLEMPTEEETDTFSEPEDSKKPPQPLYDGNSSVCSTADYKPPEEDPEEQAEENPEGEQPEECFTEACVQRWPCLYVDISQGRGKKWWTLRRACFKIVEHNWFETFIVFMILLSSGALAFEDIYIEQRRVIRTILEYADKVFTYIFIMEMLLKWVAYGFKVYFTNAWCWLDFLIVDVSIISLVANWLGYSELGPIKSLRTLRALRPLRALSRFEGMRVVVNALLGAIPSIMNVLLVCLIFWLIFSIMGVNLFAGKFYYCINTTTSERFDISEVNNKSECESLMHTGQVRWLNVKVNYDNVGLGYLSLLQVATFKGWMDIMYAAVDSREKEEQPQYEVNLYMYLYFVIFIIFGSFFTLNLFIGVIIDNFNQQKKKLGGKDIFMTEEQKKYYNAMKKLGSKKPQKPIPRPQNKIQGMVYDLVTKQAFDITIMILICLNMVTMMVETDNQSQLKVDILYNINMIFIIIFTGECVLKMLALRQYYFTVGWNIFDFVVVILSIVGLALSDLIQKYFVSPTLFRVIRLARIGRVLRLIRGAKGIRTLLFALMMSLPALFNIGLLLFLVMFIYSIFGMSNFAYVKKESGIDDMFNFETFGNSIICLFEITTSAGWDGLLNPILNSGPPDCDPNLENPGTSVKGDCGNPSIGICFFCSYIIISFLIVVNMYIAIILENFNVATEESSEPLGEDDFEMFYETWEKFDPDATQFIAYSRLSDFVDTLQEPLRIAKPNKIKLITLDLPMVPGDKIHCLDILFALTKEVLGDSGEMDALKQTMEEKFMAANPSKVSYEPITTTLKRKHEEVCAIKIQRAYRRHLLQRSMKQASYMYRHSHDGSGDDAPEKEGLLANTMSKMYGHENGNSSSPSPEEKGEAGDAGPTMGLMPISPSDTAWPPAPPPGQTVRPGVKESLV", "experiment": "Automated patch clamping (QPatch-16), hNav1.4", "assay_type": "cell-based", "protocol": "HEK293 cells stably expressing hNav1.1-1.7 or CHO cells stably expressing hNav1.8 (as described in Example 3 above) were cultured in a T-175 flask in selection antibiotic-free media at 37° C. Cells were grown to 70-80% confluence and harvested using Detachin (Bio-Scientific, NSW, Australia) at 37° C. for 2 min. Dissociated cells were then resuspended in Ex-Cell ACF CHO Medium with HEPES (25 mM; Sigma-Aldrich Co.) and allowed to recover on the QStirrer for 30 min.\nThe extracellular solution contained in mM: NaCl 145, KCl 4, CaCl2 2, MgCl2 1, HEPES 10 and glucose 10. The pH was adjusted to 7.4 with NaOH and osmolarity was adjusted with sucrose to 305 mOsm. The intracellular solution contained in mM: CsF 140, ethylene glycol tetraacetic acid (EGTA)/CsOH 1/5, HEPES 10 and NaCl 10. The pH was adjusted to 7.3 with CsOH and osmolarity adjusted with sucrose to 320 mOsm. […]\nThe current-voltage (IV) curve was constructed with a holding potential of −80 mV followed by a pre-pulse of −100 mV for 50 ms and a series of 50 ms step pulses that ranged from −80 to 50 mV in 5 mV increments before returning to a holding potential of −80 mV. Voltage-dependence of activation was determined as normalized Nav conductance (GNa) using: GNa=INa/(Vmemb−Vrev), where Vmemb is the membrane potential and Vrev is the reversal potential for each cell. […]"}, "[3]": {"tested_on": "burns-induced pain in mice", "experiment": "Burns-induced pain", "assay_type": "in vivo", "settings": "intraplantar, 3 days after burns injury", "protocol": "For behavioural assessment adult male C57BL/6J mice aged 6-8 weeks were used. Animals were housed in groups of 3 or 4 per cage, under 12 h light-dark cycles and had standard rodent chow and water ad libitum.\nTo induce a mild burn injury, the plantar skin of the left hind paw of mice was applied with firm pressure to a Peltier plate (Hot/Cold Plate, Ugo Basile, Comerio, Italy) set at 52.5° C. for 25 s under light isoflurane (3%) anaesthesia. Behavioural assessment (mechanical and thermal thresholds) was performed 3 days after the burns injury.\nMechanical allodynia was assessed using an electronic von Frey apparatus (MouseMet Electronic von Frey, TopCat Metrology Ltd, United Kingdom). […] The force that elicited paw withdrawal was calculated using the MouseMet Software. The paw withdrawal force (PWF) was determined from the average of three tests, separated by at least 2 min.\nMice were habituated in individual mouse runs for at least 5 min prior to testing. […] Removal of the paw and/or the probe by the investigator terminates heating, and triggers display of the withdrawal temperature on the readout, without the need for the investigator to manually stop the heating or record the temperature, until the reset button is pressed. The temperature that elicited a paw withdrawal, known as the paw withdrawal temperature (PWT), was determined by a single test."}, "[4]": {"biological_target": "T3, hNav1.1 (Homo sapiens, UniProt P35498)", "T3 construct": "host or cells: HEK293", "experiment": "FLIPR membrane potential assay, hNav1.1", "assay_type": "cell-based", "how_it_was_run": "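HEK293 cells stably expressing each human Nav subtype were plated 48 h ahead and loaded with red membrane potential dye for 30 min at 37° C.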"}, "[5]": {"experiment": "Stability of Pnc1a in solutions (RP-HPLC/MS)", "assay_type": "physicochemical", "settings": "room temperature"}},
  "note": "pIC50: −log10 of the molar value.",
  "data": [
    {"smiles": "CSCC[C@@H]1NC(=O)[C@H](Cc2ccc(O)cc2)NC(=O)[C@H](CCCNC(=N)N)NC(=O)[C@@H](NC(=O)[C@@H](N)CC(=O)O)CSSC[C@@H]2NC(=O)[C@@H]3CSSC[C@@H](C(=O)N[C@@H](C)C(=O)N[C@@H](Cc4c[nH]c5ccccc45)C(=O)N[C@@H](CC(=O)O)C(=O)N[C@@H](Cc4ccccc4)C(=O)N[C@H](C(=O)N[C@@H](Cc4ccccc4)C(=O)N[C@H](C(=O)O)[C@@H](C)O)[C@@H](C)O)NC(=O)[C@H](Cc4ccc(O)cc4)NC(=O)[C@H](CCCCN)NC(=O)[C@H](CCSC)NC(=O)[C@H](CCCCN)NC(=O)[C@H](CCCNC(=N)N)NC(=O)[C@H](CCCCN)NC(=O)[C@H](CSSC[C@H](NC(=O)[C@H](CC(=O)O)NC(=O)CNC(=O)[C@H](Cc4ccccc4)NC1=O)C(=O)N[C@@H](CCC(=O)O)C(=O)N[C@@H](CCCCN)C(=O)N[C@@H](CC(=O)O)C(=O)N[C@@H](CCC(=O)O)C(=O)N[C@@H](CC(=O)O)C(=O)N3)NC(=O)CNC(=O)[C@H](CC(C)C)NC(=O)[C@H](Cc1cnc[nH]1)NC(=O)[C@H](CCCCN)NC2=O", "note": "[Pnc1a]", "values": [
      {"measurement": "pIC50", "setting": "[1]", "result": 5.63},
      {"measurement": "pIC50", "setting": "[2]", "result": 6.80},
      {"measurement": "mechanical threshold of the injured paw", "setting": "[3]", "result": "no significant effect"},
      {"measurement": "thermal threshold of the injured paw", "setting": "[3]", "result": "significantly increased"},
      {"measurement": "pIC50", "setting": "[4]", "result": 4.88},
      {"measurement": "time after which no intact peptide remained", "setting": "[5]; PBS pH 6.5, 100 μM", "result": 12, "unit": "days"},
      {"measurement": "time after which no intact peptide remained", "setting": "[5]; PBS/saline pH 5.7, 100 μM", "result": 25, "unit": "days"},
      {"measurement": "stability over the 25 day period", "setting": "[5]; bicarbonate buffered saline pH 5.7, 100 μM", "result": "remained intact"},
      {"measurement": "stability over the 25 day period", "setting": "[5]; bicarbonate buffered saline pH 7.1, 100 μM", "result": "remained intact"},
      {"measurement": "stability over the 25 day period", "setting": "[5]; saline pH 3, 100 μM", "result": "remained intact"}
    ]}
  ]
}
